Laboratory results from patent publication US20130324522A1, “INSECT ODORANT RECEPTOR ANTAGONISTS” (THE ROCKEFELLER UNIVERSITY, priority 2010, published 2013).
pIC50: −log10 of the molar value.

These compounds were tested against T1, mOREG (Mus musculus, UniProt Q920P2) (assay: Ca2+-imaging, control receptor mOREG). Details: Table B.
T1 sequence (Q920P2 1-313): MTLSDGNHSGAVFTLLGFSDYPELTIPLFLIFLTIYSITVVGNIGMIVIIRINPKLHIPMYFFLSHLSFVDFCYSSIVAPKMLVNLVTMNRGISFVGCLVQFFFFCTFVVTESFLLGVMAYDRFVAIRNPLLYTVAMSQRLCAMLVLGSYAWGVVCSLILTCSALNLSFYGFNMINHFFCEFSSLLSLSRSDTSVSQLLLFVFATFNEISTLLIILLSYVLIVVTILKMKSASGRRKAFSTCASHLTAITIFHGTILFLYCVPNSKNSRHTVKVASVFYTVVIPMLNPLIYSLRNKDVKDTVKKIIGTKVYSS
Type: cell-based
Method in brief: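 Stable cell lines plated 2 days on poly-D-lysine, loaded with Ca-4 dye 1.5 hr at room temperature, then challenged with odorant in HBSS containing pre-added compounds. Intracellular Ca2+ rise followed by real-time fluorescence, 485 nm excitation/525 nm emission; HBSS and ligand wells serve as negative and positive controls.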
In the case of `COc1ccc(-c2nnc(SCc3ccc(C#N)cc3)n2-c2ccc(C)cc2)cc1` [RU-0046426], the pIC50 was < 6.00. `COCCCN(CC(=O)N1CCc2sccc2C1c1ccc(OC)cc1)C(=O)C(C)(C)CCl` (stereo not drawn) [RU-0069950] was tested, and the pIC50 was < 6.00. In the case of `COc1ccccc1N1CCN(C(=O)c2cc3n(n2)CCN(Cc2c(F)cccc2Cl)C3=O)CC1` [RU-0043595], the pIC50 was < 6.00. In the case of `CCN(CC)C(=O)Oc1ccc2c(ccn2Cc2cccc(C)c2)c1NC(=O)[C@H](C)OC(C)=O` [RU-0075468], the pIC50 was > 7.00. With `CN(Cc1ccccc1)C(=O)CCC1CCN(C(=O)CCOc2ccccc2)CC1` [RU-0028727] the pIC50 was < 6.00. In the case of `CN(C)c1nc(N(C)C)nc(N(C)C)n1` [RU-0000619], the pIC50 was < 6.00.

Same assay, conditions: compound applied at 4 μM; read-out: Percent Inhibition mOREG
Work on `COc1ccc(-c2nnc(SCc3ccc(C#N)cc3)n2-c2ccc(C)cc2)cc1` [RU-0046426] yielded an inhibition at 4 µM of 51 to 74%. `CCOc1ccccc1C(=O)NNC(=O)COc1cc(C)cc(C)c1` [RU-0023245] showed an inhibition at 4 µM of 26 to 50%. `CC(NC(=O)c1cc2n(n1)CCN(Cc1c(Cl)cccc1Cl)C2=O)c1ccccc1` (stereo not drawn) [RU-0045115] showed an inhibition at 4 µM of 26 to 50%. For `COC(=O)C(Cc1ccccc1)NC(=O)C1CC1(c1ccccc1)c1ccccc1` (stereo not drawn) [RU-0028029], the inhibition at 4 µM was < 25%. `COCCCN(CC(=O)N1CCc2sccc2C1c1ccc(OC)cc1)C(=O)C(C)(C)CCl` (stereo not drawn) [RU-0069950] showed an inhibition at 4 µM of 51 to 74%. With `Cc1cc(C)c2c(c1C(=O)N1CCC3(CC1)C(=O)NCN3c1ccccc1)CC(C)(C)C2=O` [RU-0025771] the inhibition at 4 µM was 26 to 50%. For `Cc1ccc(CN(CCc2ccccc2)C(=O)CN(C(=O)NC(C)(C)C)C(C)C)o1` [RU-0072008], the inhibition at 4 µM was 26 to 50%. `COc1ccccc1N1CCN(C(=O)c2cc3n(n2)CCN(Cc2c(F)cccc2Cl)C3=O)CC1` [RU-0043595] showed an inhibition at 4 µM of 51 to 74%. With `COCCNC(=O)c1ccc(CSc2nnc(-c3ccc(C)cc3)n2-c2ccccc2F)cc1` [RU-0051652] the inhibition at 4 µM was < 25%. In the case of `COCCN(Cc1cc(Cl)ccc1OS(=O)(=O)c1ccc(F)cc1)C(=O)C1CCC1` [RU-0035287], the inhibition at 4 µM was 26 to 50%. With `COc1nc(NC(C)C)nc(NC(C)C)n1` [RU-0001534] the inhibition at 4 µM was < 25%. `O=C1CN(S(=O)(=O)c2c(F)cc(F)cc2F)CC2c3cccc(F)c3CCN12` (stereo not drawn) [RU-0076832] gave an inhibition at 4 µM of 26 to 50%. `COc1ccc(N2CCN(C(=O)C3CC=CCC3C(=O)NC(c3ccccc3)c3ccccn3)CC2)cc1` (stereo not drawn) [RU-0026507] was tested, and the inhibition at 4 µM was < 25%. In the case of `COc1ccc(C(=O)c2ccccc2)c(O)c1O` [RU-0001617], the inhibition at 4 µM was < 25%. Compound `COc1ccc(N2CCN(C(=O)C3CC=CCC3C(=O)NCCCCc3ccccc3)CC2)cc1` (stereo not drawn) [RU-0026167] has an inhibition at 4 µM of 26 to 50%. `CC(NCc1ccccc1)c1nc2ccccc2c(=O)n1-c1ccc(Cl)cc1` (stereo not drawn) [RU-0072535] gave an inhibition at 4 µM of 26 to 50%. `CCOCCCN(CC(=O)N(Cc1ccc2c(c1)OCO2)Cc1sccc1C)C(=O)NC(C)(C)C` [RU-0052340] gave an inhibition at 4 µM of 26 to 50%. Compound `C=C[C@@](C)(O)CCC1C(=C)CCC2[C@@](C)(CO)CCC[C@]12C` (stereo partly drawn) [RU-0001327] has an inhibition at 4 µM of 26 to 50%. Work on `COCCCN(CC(=O)N1CCc2sccc2C1COc1cccc(OC)c1)C(=O)c1ccccc1OC` (stereo not drawn) [RU-0036294] yielded an inhibition at 4 µM of 26 to 50%. In the case of `Cc1ccc(-n2nc(C)c(CCC(=O)N3CCc4ccccc4C3)c2C)cc1Cl` [RU-0026074], the inhibition at 4 µM was < 25%. `COc1cc(OC)cc(C2NC(=O)N(C)C3=C2C(=O)N(C2CCCCC2)C3)c1` (stereo not drawn) [RU-0047750] was tested, and the inhibition at 4 µM was < 25%. For `CCOC(=O)C(c1ccc(OC)c(OC)c1)C1C=CC(NC(=O)c2ccc3c(c2)OCO3)C1` (stereo not drawn) [RU-0049030], the inhibition at 4 µM was < 25%. In the case of `COc1nc(OCC#N)nc(N2CCCCC2)n1` [RU-0006256], the inhibition at 4 µM was < 25%. In the case of `COCCCN(CC(=O)N1CCc2sccc2C1COc1cccc(OC)c1)C(=O)Cc1ccccc1` (stereo not drawn) [RU-0036264], the inhibition at 4 µM was < 25%. In the case of `CCN(CC)C(=O)Oc1ccc2c(ccn2Cc2cccc(C)c2)c1NC(=O)[C@H](C)OC(C)=O` [RU-0075468], the inhibition at 4 µM was > 75%. `CN(Cc1ccccc1)C(=O)CCC1CCN(C(=O)CCOc2ccccc2)CC1` [RU-0028727] was tested, and the inhibition at 4 µM was 51 to 74%. For `CCOC(=O)C(c1cccc(OC)c1)C1C=CC(NC(=O)c2cccs2)C1` (stereo not drawn) [RU-0074560], the inhibition at 4 µM was < 25%. In the case of `Cc1ccc(CN(Cc2ccc(F)cc2)C(=O)CN(C(=O)NC(C)(C)C)C2CC2)s1` [RU-0052360], the inhibition at 4 µM was 26 to 50%. For `CN(C)c1nc(N(C)C)nc(N(C)C)n1` [RU-0000619], the inhibition at 4 µM was 51 to 74%. For `CCCCc1nc(CN2CCc3c([nH]c4ccccc34)C2c2cccc(OC)c2OC)c[nH]1` (stereo not drawn) [RU-0031879], the inhibition at 4 µM was 26 to 50%.
